This is an account of results in patent publication US10399931B2, “Octahydroanthracene compound, preparation method and application thereof” (SHANDONG XINHUA PHARMACEUTICAL CO., LTD., priority 2016, dated 2019).

Entries after “also recorded” stand apart in the source; their conditions may differ.

The subject of assay [1] is APP/PS1 double transgenic AD model mice. Put plainly: β-amyloid deposition in cerebral cortex and hippocampus of APP/PS1 mice. Format: in vivo. As for the experimental part: The drugs were administered three days after the adaptive feeding. Peanut oil was used as the solvent. […] On the 6th to 9th day after the administration, the new object identification test was performed. On the 10th day, the Y-maze test was performed. On the 11th to 15th day, the Morris water maze test was performed to determine the improvement of learning and memory. The administration of the drugs was continued during the behavioral experiment until the animals were sacrificed (16th day).
After the behavioral experiment, the mice were anesthetized with an intraperitoneal injection of 3.5% chloral hydrate 3.5% (about […] for each mouse). Then the back of the mouse was fixed on the operating table and the chest was open to expose the heart. A perfusion needle was inserted into the left ventricle from the apex of the heart, while the right atrial appendage cut a small opening. First, perfusion was performed with about 200 ml saline. When the tail of the mouse was cut to find no blood, 300 ml 4% paraformaldehyde buffer (0.1 mol/L) at 4° C. was used to perfuse until the body of the mouse was stiff. The mouse was then decapitated, and the whole brain was obtained and fixed in 4% paraformaldehyde at 4° C. After 24 h, the brain was embedded in conventional paraffin and coronally sectioned to obtain the tissue sections with a thickness of 5 μm for immunohistochemical staining. […]

Assay [2] shares this test system. The assay is described as follows: Behavioral experiments (new object discrimination, Y-maze, Morris water maze, nesting, social interaction). Format: in vivo. Conditions: 14 days or 3 months. As for the experimental part: The drugs were administered three days after the adaptive feeding. Peanut oil was used as the solvent. The drug was intragastric administered once a day for 15 days. On the 6th to 9th day after the administration, the new object identification test was performed. On the 10th day, the Y-maze test was performed. On the 11th to 15th day, the Morris water maze test was performed to determine the improvement of learning and memory. The administration of the drugs was continued during the behavioral experiment until the animals were sacrificed (16th day). The experimental device is a wooden square open field with a size of 50 cm×50 cm×15 cm. […] The mouse was placed back to the objects at equal distance from the two identical objects on the other side of the experimental device, and the time (tA1, tA2) used to explore the two objects within 5 minutes was recorded. After 1 h, A2 was replaced with a new object (B) and the mouse was placed in the test site again, the time (tA1, tB) used to explore the two objects was recorded. After 24 h, the object B was replaced with a new object (C), and the mouse was placed in the test site again, the time (tA1, tC) used to explore the two objects was recorded. […] The preferential index and the discrimination index of the new objects for each group of the experimental mice were calculated separately. […]

For `CC1(C)CCC(C)(C)c2c1cc1c(c2NC(=O)c2ccc(NC(=O)NCCN)cc2)C(C)(C)CCC1(C)C` [OAB-14, 1-(2-amino) ethyl-3-{4-[(1,1,4,4,5,5,8,8-octamethyl-1,2,3,4,5,6,7,8-octahydro-9-anthryl)carbamoyl]phenyl} urea], the “Reduction of the deposition of β-amyloid protein in cerebral cortex and hippocampus” value in assay [1] (200 mg/kg, continuous intragastric administration 14 days, 8-month-old APP/PS1 mice) amounted to 67.4%. Moreover, the “Dose-effect relationship of the reduction of β-amyloid deposition” value in assay [1] (dose range 50-200 mg/kg, intragastric, 14 days) is reported as “good dose-effect relationship”. Besides, the “Learning and memory disorders in new object discrimination, Y-maze, Morris water maze, nesting and social interaction tests” value in assay [2] (50, 100 and 200 mg/kg intragastric, 8-month-old APP/PS1 mice) was “dose-dependently improve”. Also, the “Behavioral effect of the high-dose group compared with donepezil and blank groups” value in assay [2] (high-dose group) was “significantly stronger than that of the donepezil group and completely restored to the level of the blank control group; also recorded: significantly stronger than the donepezil group and completely recovered to the level of the blank group”.
